# Read-outs that look alike come from different tables or passages of the source.
# Assays:
# Assay type in all cases: cell-based
# [1] = system: HCC1428-LTED cells; assay: In vitro anti-proliferation assay (CellTiter-Glo viability), HCC1428-LTED cells; details: viability on day 8, relative IC50, read-out: HCC 1428 IC50
# Procedure: (§1) Test: In vitro anti-proliferation assay
# (§2) Said test involves measuring the in vitro anti-proliferation activity of the compounds of the Table 1a.
# (§3) The measurements of the anti-proliferation activities were made using MCF7-WT (ATCC), MCF7-Y537S and HCC1428-LTED cells as described hereunder.
# (§4) On Day 1, MCF7-WT and MCF7-Y537S (Mol Cancer Ther. 2021 20(2):250-262), and HCC1428-LTED (J Clin Invest. 2010; 120(7):2406-2413) cells, were seeded at 2000 (WT and LTED) and 500 (Y537S) cells/well in phenol red free IMEM (Corning, 110-026-CV) with 5% Charcoal stripped-FBS and incubated overnight 37° C. and 5% CO2.
# (§5) On day 2, compounds were tested in triplicate in 10-point dose response (1:3 serial dilutions with a top concentration starting 300 nM); DMSO for upper limit (negative control) and staurosporine (1 uM) for lower limit (positive control) were also included. MCF7-WT cells were then supplemented with final 0.1 nM b-estradiol. After treating the cells, the assay plates were transferred back in the incubator at 37° C. and 5% CO2.
# (§6) On day 8, cell viability was measured per vendor recommendations (CellTiter-Glo, Promega). Relative IC50 measurements were calculated as follow using a 4-parameter logistic derived from Levenburg Marquardt algorithm (IDBS XL Model 205 fit within A-base).
# [2] = system: MCF7-WT cells; assay: In vitro anti-proliferation assay (CellTiter-Glo viability), MCF7-WT cells; details: MCF7-WT cells supplemented with 0.1 nM b-estradiol, viability on day 8, relative IC50
# Procedure: as §1, §2, §3, §4, §5, §6
# [3] = system: MCF7-Y537S cells; assay: In vitro anti-proliferation assay (CellTiter-Glo viability), MCF7-Y537S cells; details: viability on day 8, relative IC50
# Procedure: as §1, §2, §3, §4, §5, §6
SMILES,"IC50 ([1]; Homo sapiens, HCC1428, 192 h) [nM]",IC50 [2] [nM],IC50 [3] [nM],IC50 [1] [nM],"IC50 ([2]; Homo sapiens, MCF7, 192 h) [nM]","IC50 ([3]; Homo sapiens, MCF7, 192 h) [nM]"
"CN(C)C(=O)/C=C/CN1CCC(Cc2ccc(C3=C(c4ccc(Cl)cc4Cl)CCCc4cc(C(=O)O)ccc43)cc2)C1 (single isomer, unassigned; isomer 1) [Compound 18, (E)-8-(2,4-dichlorophenyl)-9-(4-((1-(4-(dimethylamino)-4-oxobut-2-en-1-yl)pyrrolidin-3-yl)methyl)phenyl)-6,7-dihydro-5H-benzo[7]annulene-3-carboxylic acid, Isomer 1]",0.3,26,59,–,–,–
"CN(C)C(=O)/C=C/CN1CCC(Cc2ccc(C3=C(c4ccc(Cl)cc4Cl)CCCc4cc(C(=O)O)ccc43)cc2)C1 (single isomer, unassigned; isomer 2) [Compound 19, (E)-8-(2,4-dichlorophenyl)-9-(4-((1-(4-(dimethylamino)-4-oxobut-2-en-1-yl)pyrrolidin-3-yl)methyl)phenyl)-6,7-dihydro-5H-benzo[7]annulene-3-carboxylic acid, Isomer 2]",–,9,20.7,0.2,–,–
"CN(C)C(=O)/C=C/CN1CC[C@H](Oc2ccc(C3=C(c4ccc(Cl)cc4Cl)CCCc4cc(C(=O)O)ccc43)cc2)C1 [Compound 1, (S,E)-8-(2,4-dichlorophenyl)-9-(4-((1-(4-(dimethylamino)-4-oxobut-2-en-1-yl)pyrrolidin-3-yl)oxy)phenyl)-6,7-dihydro-5H-benzo[7]annulene-3-carboxylic acid]",0.7,–,–,–,14,≥ 500
"CN(C)C(=O)/C=C/CN1CC[C@H](Oc2ccc(C3=C(c4ccc(F)cc4Cl)CCCc4cc(C(=O)O)ccc43)cc2)C1 [Compound 2, (S,E)-8-(2-chloro-4-fluorophenyl)-9-(4-((1-(4-(dimethylamino)-4-oxobut-2-en-1-yl)pyrrolidin-3-yl)oxy)phenyl)-6,7-dihydro-5H-benzo[7]annulene-3-carboxylic acid]",0.4,–,–,–,10,≥ 500
"CN(C)C(=O)/C=C/CN1CC[C@H](Oc2ccc(C3=C(c4ccc(Cl)cc4F)CCCc4cc(C(=O)O)ccc43)cc2)C1 [Compound 3, (S,E)-8-(4-chloro-2-fluorophenyl)-9-(4-((1-(4-(dimethylamino)-4-oxobut-2-en-1-yl)pyrrolidin-3-yl)oxy)phenyl)-6,7-dihydro-5H-benzo[7]annulene-3-carboxylic acid]",0.7,–,–,–,24,167
"CN(C)C(=O)/C=C/CN1CC[C@H](Oc2ccc(C3=C(c4cccc(F)c4Cl)CCCc4cc(C(=O)O)ccc43)cc2)C1 [Compound 4, (S,E)-8-(2-chloro-3-fluorophenyl)-9-(4-((1-(4-(dimethylamino)-4-oxobut-2-en-1-yl)pyrrolidin-3-yl)oxy)phenyl)-6,7-dihydro-5H-benzo[7]annulene-3-carboxylic acid]",2,–,–,–,22,≥ 500
"Cc1ccc(C2=C(c3ccc(O[C@H]4CCN(C/C=C/C(=O)N(C)C)C4)cc3)c3ccc(C(=O)O)cc3CCC2)c(F)c1 [Compound 5, (S,E)-9-(4-((1-(4-(dimethylamino)-4-oxobut-2-en-1-yl)pyrrolidin-3-yl)oxy)phenyl)-8-(2-fluoro-4-methylphenyl)-6,7-dihydro-5H-benzo[7]annulene-3-carboxylic acid]",0.2,–,–,–,3,76
"CN(C)C(=O)/C=C/CN1CC[C@H](Oc2ccc(C3=C(c4ccccc4)CCCc4cc(C(=O)O)ccc43)cc2)C1 [Compound 6, (S,E)-9-(4-((1-(4-(dimethylamino)-4-oxobut-2-en-1-yl)pyrrolidin-3-yl)oxy)phenyl)-8-phenyl-6,7-dihydro-5H-benzo[7]annulene-3-carboxylic acid]",0.7,–,–,–,14,≥ 500
"Cc1ccc(C2=C(c3ccc(O[C@H]4CCN(C/C=C/C(=O)N(C)C)C4)cc3)c3ccc(C(=O)O)cc3CCC2)cc1Cl [Compound 7, (S,E)-8-(3-chloro-4-methylphenyl)-9-(4-((1-(4-(dimethylamino)-4-oxobut-2-en-1-yl)pyrrolidin-3-yl)oxy)phenyl)-6,7-dihydro-5H-benzo[7]annulene-3-carboxylic acid]",2,–,–,–,28,≥ 500
"Cc1ccc(C2=C(c3ccc(O[C@H]4CCN(C/C=C/C(=O)N(C)C)C4)cc3)c3ccc(C(=O)O)cc3CCC2)c(C)c1 [Compound 8, (S,E)-9-(4-((1-(4-(dimethylamino)-4-oxobut-2-en-1-yl)pyrrolidin-3-yl)oxy)phenyl)-8-(2,4-dimethylphenyl)-6,7-dihydro-5H-benzo[7]annulene-3-carboxylic acid]",0.2,–,–,–,3,87
"CN(C)C(=O)/C=C/CN1CC[C@H](Oc2ccc(C3=C(c4ccccc4Cl)CCCc4cc(C(=O)O)ccc43)cc2)C1 [Compound 9, (S,E)-8-(2-chlorophenyl)-9-(4-((1-(4-(dimethylamino)-4-oxobut-2-en-1-yl)pyrrolidin-3-yl)oxy)phenyl)-6,7-dihydro-5H-benzo[7]annulene-3-carboxylic acid]",0.2,–,–,–,4,87
"COc1ccc(C2=C(c3ccc(O[C@H]4CCN(C/C=C/C(=O)N(C)C)C4)cc3)c3ccc(C(=O)O)cc3CCC2)c(F)n1 [Compound 10, (S,E)-9-(4-((1-(4-(dimethylamino)-4-oxobut-2-en-1-yl)pyrrolidin-3-yl)oxy)phenyl)-8-(2-fluoro-6-methoxypyridin-3-yl)-6,7-dihydro-5H-benzo[7]annulene-3-carboxylic acid]",0.3,–,–,–,8,≥ 500
"Cc1ccc(C2=C(c3ccc(O[C@H]4CCN(C/C=C/C(=O)N(C)C)C4)cc3)c3ccc(C(=O)O)cc3CCC2)c(Cl)c1 [Compound 11, (S,E)-8-(2-chloro-4-methylphenyl)-9-(4-((1-(4-(dimethylamino)-4-oxobut-2-en-1-yl)pyrrolidin-3-yl)oxy)phenyl)-6,7-dihydro-5H-benzo[7]annulene-3-carboxylic acid]",0.1,–,–,–,2,204
"CN(C)C(=O)/C=C/CN1CC(Oc2ccc(C3=C(c4ccc(Cl)cc4Cl)CCCc4cc(C(=O)O)ccc43)cc2)C1 [Compound 12, (E)-8-(2,4-dichlorophenyl)-9-(4-((1-(4-(dimethylamino)-4-oxobut-2-en-1-yl)azetidin-3-yl)oxy)phenyl)-6,7-dihydro-5H-benzo[7]annulene-3-carboxylic acid]",3,–,–,–,126,≥ 500
"CN(C)C(=O)/C=C/CN1CC(Cc2ccc(C3=C(c4ccc(Cl)cc4Cl)CCCc4cc(C(=O)O)ccc43)cc2)C1 [Compound 13, (E)-8-(2,4-dichlorophenyl)-9-(4-((1-(4-(dimethylamino)-4-oxobut-2-en-1-yl)azetidin-3-yl)methyl)phenyl)-6,7-dihydro-5H-benzo[7]annulene-3-carboxylic acid compound with 2,2,2-trifluoroacetic acid (1:1)]",0.01,–,–,–,3,9
"CN(C)C(=O)/C=C/CN1CC(=Cc2ccc(C3=C(c4ccc(Cl)cc4Cl)CCCc4cc(C(=O)O)ccc43)cc2)C1 [Compound 14, (E)-8-(2,4-dichlorophenyl)-9-(4-((1-(4-(dimethylamino)-4-oxobut-2-en-1-yl)azetidin-3-ylidene)methyl)phenyl)-6,7-dihydro-5H-benzo[7]annulene-3-carboxylic acid]",0.4,–,–,–,101,0.4
"CN(C)C(=O)/C=C/CN1CC[C@@H](Oc2ccc(C3=C(c4ccc(Cl)cc4Cl)CCCc4cc(C(=O)O)ccc43)cc2)C1 [Compound 15, (R,E)-8-(2,4-dichlorophenyl)-9-(4-((1-(4-(dimethylamino)-4-oxobut-2-en-1-yl)pyrrolidin-3-yl)oxy)phenyl)-6,7-dihydro-5H-benzo[7]annulene-3-carboxylic acid]",5,–,–,–,53,186
"CN(C)C(=O)/C=C/CN1CC[C@H](Nc2ccc(C3=C(c4ccc(Cl)cc4Cl)CCCc4cc(C(=O)O)ccc43)cc2)C1 [Compound 16, (S,E)-8-(2,4-dichlorophenyl)-9-(4-((1-(4-(dimethylamino)-4-oxobut-2-en-1-yl)pyrrolidin-3-yl)amino)phenyl)-6,7-dihydro-5H-benzo[7]annulene-3-carboxylic acid]",33,–,–,–,37,174
"CN(C)C(=O)/C=C/CN1CC[C@@H](Nc2ccc(C3=C(c4ccc(Cl)cc4Cl)CCCc4cc(C(=O)O)ccc43)cc2)C1 [Compound 17, (R,E)-8-(2,4-dichlorophenyl)-9-(4-((1-(4-(dimethylamino)-4-oxobut-2-en-1-yl)pyrrolidin-3-yl)amino)phenyl)-6,7-dihydro-5H-benzo[7]annulene-3-carboxylic acid]",1,–,–,–,10,138

# Source: patent US20250250231A1, “NOVEL SUBSTITUTED 4-AMINO-4-OXO-BUT-2-ENYL DERIVATIVES, PROCESSES FOR THEIR PREPARATION AND THERAPEUTIC USES THEREOF” (SANOFI, priority 2022, published 2025)
